Where two headings read alike, the source gives them in different places.
Columns and labels:
[1] = test system: phosphorylated ERK in COLO829 cells (B-Raf V599E); test: Phospho-ERK Western blot in COLO829 cells; type: cell-based, human
Procedure: The downstream effects of inhibition of a particular kinase (e.g. MEK) can be established by measuring the phosphorylation state of several proteins that require that kinase for phosphorylation (e.g. ERK1). Cultured cells are treated with hypothemycin or other lactone analogs described herein, and Western blots of cell extracts are probed with antibodies specific for the unmodified and phosphorylated forms of the downstream targets. As an example, the effects of hypothemycin on MEK1/2 can be determined by measuring the level of ERK1/2 phosphorylation.
Referring to FIG. 8, B-Raf V599E mutant melanoma cell line COLO829 was incubated with 1 microM hypothemycin for 2, 5, 10, 15, 30, and 60 minutes. The cells were then lysed and the proteins extracted. Equal amounts of total protein from each sample were separated by SDS-PAGE followed by electroblotting to a PVDF membrane. The levels of phospho-ERK present in each extract were visualized by incubation of the membrane with anti-phosphoERK antibody (Cell Signaling Technologies) followed by incubation with an HRP linked secondary antibody. Phospho-ERK containing bands were detected by autoradiography using the ECL Western detection kit (Amersham).

MEK1 [2] = target: T1, MEK1 (Homo sapiens, UniProt Q02750); test: Time-dependent kinase inhibition kinetics (pre-incubation, [32P]ATP filter binding); type: biochemical
T1 sequence (Q02750 whole entry): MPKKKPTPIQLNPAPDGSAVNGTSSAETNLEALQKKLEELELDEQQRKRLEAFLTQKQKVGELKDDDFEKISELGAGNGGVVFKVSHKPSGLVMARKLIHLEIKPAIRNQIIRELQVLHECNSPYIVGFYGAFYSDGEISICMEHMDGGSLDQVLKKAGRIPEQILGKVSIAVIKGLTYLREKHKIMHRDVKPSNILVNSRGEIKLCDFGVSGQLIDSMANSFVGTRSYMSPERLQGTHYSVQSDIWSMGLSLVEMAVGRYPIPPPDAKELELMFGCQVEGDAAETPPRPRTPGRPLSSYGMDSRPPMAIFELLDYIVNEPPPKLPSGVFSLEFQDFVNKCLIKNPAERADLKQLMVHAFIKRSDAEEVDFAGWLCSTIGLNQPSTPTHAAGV
Procedure: Typically, one measures the increase in inhibition of protein kinase activity in the presence of inhibitor over time. In one method, aliquots of a “pre-incubation” reaction mixture containing enzyme and inhibitor are assayed for activity (initial velocities) over time; increased inhibition or decreased initial velocities will be observed over time as the Michael adduct forms (Walsh, C, Enzyme Reaction Mechanisms, W.H. Freeman & Co., 1979, pp 86-94). In a second method, the time dependent loss of activity is measured as “progress curves” that measure and analyze product formed (e.g. ADP) versus time (Morrison & Walsh, Adv. Enzymol Relat Areas Mol. Biol. 1988, 61, 201-301). In either case, the time dependent inactivation can be dampened by the presence of a competing substrate, in this case ATP.
MEK1 and many other protein kinases that can be targets of the compounds useful in the methods of the invention can be obtained commercially (Invitrogen; Carlsbad, Calif.) or prepared using standard molecular biology techniques. After activation by phosphorylation, they are assayed for their ability to phosphorylate a target kinase or surrogate substrate. For example, MEK1 can be assayed in a mixture containing MEK1 (30 nM) and ERK1 (2 μM), [γ-^32P]ATP (10 uM) and MgCl2 in Mops buffer pH 7.6. Phosphorylation can be measured by isolating [γ-^32P]-phosphorylated ERK1 on phosphocellulose paper, and counting radioactive product. Alternatively, a coupled enzyme system may be used in which a product of the kinase reaction, such as ADP, is measured by analysis with a secondary system that converts that product (e.g. ADP) to an easily measurable entity (e.g. NADH); often, such coupled systems can be measured by convenient spectrophotometry assays.
To measure time-dependent inhibition using the “pre-incubation method”, MEK1 (or other kinase) is incubated with varying amounts of the lactone inhibitor; […]. Aliquots are removed at various times, added to a solution containing substrates [γ-^32P]ATP, ERK1 (or other substrate), and the other components of the reaction, and initial rates are determined as a measure of remaining enzyme activity.
For covalent inhibitors, plots of log (activity) versus time provide apparent first-order rate constants (kobsd) of enzyme activity loss. If these assays are performed at varying concentrations of inhibitor, a series of first-order plots is obtained and kobsd obtained at each inhibitor concentration. To measure time-dependent inhibition using the “progress-curve method” (see references cited above and Kuzmic et al., Methods Enzymol 2004; 383: 366-81), ERK (or other kinase) is treated with varying amounts of the lactone inhibitor, and the formation of ADP is measured continuously by a coupled assay. […] Such molecules may be competitive inhibitors but should not show time-dependent inactivation.
Those of skill in the art will recognize that within the set of compounds useful in the methods of the invention, significant variability in specificity can be achieved, allowing one to identify optimal compounds for different applications. Inhibition progress curve analysis was performed using continuous, colorimetric, or fluorimetric assays. All experiments were done at 1 mM ATP, with the exception of KDR (at 5 mM ATP).
MEK1 assays were performed using pre-incubation experiments with radioactive [^32P]ATP and filter binding of product. All other kinases were analyzed using progress curve analysis from a continuous spectrophotometric assay.

[3] = test system: WM266-4 (Human melanoma, B-Raf V599D); test: Cell proliferation assay (Cell Titer Glo); type: cell-based; settings: Homo sapiens, WM 266-4, read-out: Kinase Inhibitor IC50
Procedure: (§1) In one illustrative method, cells are treated with various concentrations of the inhibitor in 96 well plates, incubated at 37° C./5% CO2 for three days, and analyzed using the Cell Titer Glo kit (Promega).

[4] = test system: P815 (Mouse mastocytoma, KIT D814Y); test: Cell proliferation assay (Cell Titer Glo); type: cell-based; settings: Mus musculus
Procedure: as §1

[5] = test system: ASZ001 (Basal cell carcinoma); test: Cell proliferation assay (Cell Titer Glo); type: cell-based
Procedure: as §1

[6] = test system: MV4-11 (Human leukemia Flt3-ITD); test: Cell proliferation assay (Cell Titer Glo); type: cell-based; settings: Homo sapiens
Procedure: as §1

[7] = test system: A375 (Human melanoma, B-Raf V599E); test: Cell proliferation assay (Cell Titer Glo); type: cell-based; settings: Homo sapiens, A-375, read-out: Kinase Inhibitor IC50
Procedure: as §1

[8] = test system: DU4475 (Human breast, B-Raf V599E); test: Cell proliferation assay (Cell Titer Glo); type: cell-based; settings: Homo sapiens, DU-4475, read-out: Kinase Inhibitor IC50
Procedure: as §1

[9] = test system: A549 (NSCLC, B-Raf wild-type); test: Cell proliferation assay (Cell Titer Glo); type: cell-based; settings: Homo sapiens, A549, read-out: Kinase Inhibitor IC50
Procedure: as §1

[10] = test system: EOL-1 (Human leukemia FLP1L1-PDGFRA); test: Cell proliferation assay (Cell Titer Glo); type: cell-based; settings: Homo sapiens, EOL1, read-out: Kinase Inhibitor IC50
Procedure: as §1

MEK1 [11] = target: T1, MEK1; settings: cited from earlier work

Structure (SMILES): COc1cc(O)c2c(c1)[C@H]1O[C@@H]1C[C@H](O)[C@H](O)C(=O)/C=C\C[C@H](C)OC2=O [Hypothemycin, hypothemycin]
- time phosphorylated active ERK is absent after removal of the inhibitor ([1]; COLO829 (and other BRAF mutant cells)): ~24 h
- ERK pathway after a 10 min. exposure ([1]; COLO829, concentrations several-fold lower than Kd / sub-micromolar): completely shut down
- time to depletion of the phosphorylated form of ERK ([1]; COLO829 cells, 1 microM hypothemycin, FIG. 8): ≤ 10 min
- kinact/KI (MEK1 [2]): 130000 M⁻¹ s⁻¹
- Ki (MEK1 [2]; 1 mM ATP): 0.019 µM
- kinact (MEK1 [2]; 1 mM ATP, read-out: kinact): 0.003 s⁻¹
- IC50 [3]: 0.04 µM
- GI50 ([4]; P815): 0.31 µM
- IC50 ([4]; P815, read-out: Kinase Inhibitor IC50): 0.31 µM
- IC50 ([5]; ASZ001 (Basal cell carcinoma), read-out: Kinase Inhibitor IC50): 0.1 µM
- IC50 ([5]; BCC cell line ASZ001 in culture, read-out: IC50): ~0.1 µM
- GI50 ([6]; MV4-11): 0.006 µM
- IC50 ([6]; MV4-11, read-out: Kinase Inhibitor IC50): 0.0055 µM
- IC50 [7]: 0.18 µM
- IC50 [8]: 0.018 µM
- IC50 [9]: 6 µM
- IC50 [10]: 0.00041 µM
- potency as MEK1 inhibitor relative to L-783,277 (fold less potent) (MEK1 [11]): 4 fold
